“Also recorded” adds a separate entry of the source. Read-outs that look alike come from different tables or passages of the source.

One data set relates to HIV/HTLV III, RF strain. Briefly: p24 viral antigen capture assay (ELISA) in C8166 CD4+ T-cells. It is filed as cell-based. The settings on record: for anti-viral activity in p24 viral antigen capture assay: result in words. As to the method: Compound I was tested for anti-viral activity in the p24 viral antigen capture assay.
The Enzyme Linked Immuno-absorbant Assay (ELISA) was used to test Compound I for anti-HIV activity by measuring virus replication in CD4^+ T-lymphocytes by detecting viral p24 antigen released into the tissue culture supernatant of infected cells.
High titer virus stocks [HIV/HTLV III, RF strain]were grown in H9 cells in RPMI-1640 (Flow Laboratories) supplemented with 10% fetal calf serum, penicillin (100 IU/ml) and streptomycin (100 μg/ml). Cell debris was removed by low speed centrifugation and the supernatant stored at -70° C. until required. The host cell line used in the anti-viral assays was the C8166 CD4^+ T-cell line which is particularly susceptible to infection with HIV. Cells were incubated with 10 TCID50, HIV/HTLV III (RF) at 37° C. for 90 minutes and then washed three times with PBS. Cell aliquots (2×10^5) were resuspended in 1.5 ml growth medium in 6 ml tubes and appropriate amounts of Compound I added and incubated at 37° C. At 72 hours post-infection, the supernatants from the cell cultures were assayed for p24 antigen. The antigen capture ELISA used was purchased from Coulter (Luton, UK). The assays were carried out on supernatants taken from infected cell cultures using the procedure described by the manufacturer. In each assay a positive control was included, together with a supernatant control taken from uninfected cells. The plates were read using the appropriate spectrophotometric detection system. Results of two separate assays are:
ID50 is defined as the dose of compound required to inhibit viral replication by 50 percent. […] Approximately 0.1 μM and 6 μM of Compound I yields 50 percent inhibition of viral replication. 0.003 μM AZT provided 50 percent inhibition of viral replication in one test conducted. ddC provided 50 percent inhibition at a concentration of 0.01 μM in one test.

Another data set concerns HIV-1 NIT strain. Briefly: inhibition of HIV-cytopathic effect and of viral RNA and antigen production in infected CD4+ CEM cells. The settings on record: MOI=1, 3 and 6 days, FIGS. 2 and 3. It is filed as cell-based. The procedure:
High titer virus stocks (HIV-1 NIT strain) were grown in CD4^+ CR1O cells in RMPI-1640 media (Gibco Laboratories) supplemented with 10% fetal calf serum and 0.1 mg/ml Gentamicin. The collected media were filtered through a 0.8 Micron filter and virus isolates were concentrated 100 fold and stored at -80° C.
CD4^+ CEM cells, propagated in the same medium, were incubated for 60 minutes at 37° C. with diluted stock virus at MOI=1. Cells were washed three times with phosphate buffered saline and resuspended in the medium at 2×10^5 cells/ml. Various quantities of Compound I were added. Three days after infection, numbers of live cells were counted by trypan blue exclusion [Mitsuya, et al. Proc. Natl. Acad. Sci. 83:1911 (1986)]. […] Cells stained with the fluorescent antibody were counted using a fluorescence microscope and the results were expressed as percentage of the total number of cells counted [(Hedenskog et al., J. Med. Virol. 1:9325 (1986)].
The viral RNA in infected cells was quantitized with an RNA-RNA hybridization/reversible target capture procedure [Gillespie et al. Molecular and Cellular Probes, 2:73 (1989)]. […] 2×10^5 live cells, determined by trypan blue exclusion, were used in each assay.
For cytotoxicity testing, uninfected CEM cells were treated with Compound I at similar concentrations and toxicity of the compound was measured by the live-cell count. […]

Another data set deals with COS cells. Put plainly: parallel cytotoxicity assay: SeAP expression under RSV-LTR in COS cells. It is filed as cell-based. Conditions: RSV-LTR not responsive to TAT, FIG. 1. The source says:
(§1) FIG. 1 Illustrates anti-TAT activity of Compound I. COS cells are co-transfected with TAT and Secreted Alkaline Phosphatase (SeAP) genes. The SeAP gene, under the control of the HIV-LTR (responsive to TAT activation) or the RSV-LTR (unresponsive to TAT action) serves as a monitor or reporter gene. SeAP activity in the HIV-LTR combination but not the RSV-LTR combination serves as a measure of TAT activity. Cells containing the RSV-LTR co-transfected gene combination serve as an indicator of the non-specific toxicity of added test compounds. The black bars represent the percent inhibition of SeAP activity by Compound I when the SeAP gene is under the control of HIV-LTR. The hatched bars represent the effect of Compound I on SeAP activity when the SeAP gene is regulated by RSV-LTR. […] The figure includes results from three separate assays.
(§2) Compound I was tested for anti-TAT activity in an anti-TAT assay described in copending patent application, now U.S. Ser. No. 07/428,555 filed Oct. 10, 1989, filed on the same day as the instant application and hereby incorporated by reference. […] The anti-TAT activity is measured by the percent inhibition of SeAP gene expression under the control of HIV-LTR.

In the next data set the test system is TAT. Put plainly: anti-TAT assay: SeAP reporter expression under HIV-LTR in COS cells co-transfected with TAT. It is filed as cell-based. Conditions: 1, 10 and 100 μM, added 24 h post transfection, assayed 48 h later, FIG. 1.
Description: as §1, §2

In the next data set the test system is HIV. Conditions: in most patients; cited from earlier work.

Regarding `Cc1cn([C@H]2C[C@H](N=[N+]=[N-])[C@@H](CO)O2)c(=O)[nH]c1=O` [AZT], the IC50 with HIV/HTLV III, RF strain (Human immunodeficiency virus 1, p24 antigen, C8166 cells, 72 h post-infection, first of two separate assays, read-out: ID50 (dose of compound required to inhibit viral replication by 50 percent)) was determined as 3 nM. In addition, in the data set on HIV/HTLV III, RF strain, the “anti-viral activity in p24 viral antigen capture assay” value (shortened to “anti-viral activity”) is reported as “active in the p24 assay; also recorded: exhibits anti-viral activity”.
On to `O=C1CN=C(c2ccc[nH]2)c2cc(Cl)ccc2N1` [Compound I, 7-chloro-5-(2-pyrryl)-3H-1,4-benzodiazepin-2(1H)-one], for which the “anti-HIV activity (HIV-cytopathic effect, viral RNA and antigen production)” value in the data set on HIV-1 NIT strain is “inhibition of HIV-cytopathic effect and viral RNA and antigen production”. Moreover, the “nonspecific cytotoxicity (SeAP gene expression under control of RSV-LTR)” value in the data set on COS cells is recorded as “does not exhibit nonspecific toxicity; also recorded: does not exhibit nonspecific cytotoxicity”. For the same molecule, the IC50 in the data set on HIV/HTLV III, RF strain (Human immunodeficiency virus 1, C8166, 72 h, read-out: ID50 (dose of compound required to inhibit viral replication by 50 percent), p24 antigen, C8166 cells, 72 h post-infection, first of two separate assays) stood at 100 nM; in the data set with HIV/HTLV III, RF strain (Human immunodeficiency virus 1, C8166, 72 h, read-out: ID50 (dose of compound required to inhibit viral replication by 50 percent), p24 antigen, C8166 cells, 72 h post-infection, second of two separate assays), 6000 nM. In addition, the “anti-viral activity” value with HIV/HTLV III, RF strain was “positive results; also recorded: exhibits anti-viral activity”. The “anti-TAT activity (inhibition of SeAP gene expression under control of HIV-LTR)” value with TAT was “specifically inhibits TAT action; also recorded: exhibits anti-TAT activity; also recorded: specific inhibitor of TAT”.
With `Nc1ccn([C@H]2CC[C@@H](CO)O2)c(=O)n1` [ddC], the “virustatic range (body weight dose)” value in the data set on HIV was 0.005-0.25 mg/kg body weight. The IC50 in the data set on HIV/HTLV III, RF strain (Human immunodeficiency virus 1, p24 antigen, C8166 cells, 72 h post-infection, second of two separate assays, read-out: ID50 (dose of compound required to inhibit viral replication by 50 percent)) amounted to 10 nM. Besides, the “anti-viral activity” value with HIV/HTLV III, RF strain is “active in the p24 assay”.

(Values after US5041438A, “Method for treating retroviral infections with benzodiazepine compounds” (Hoffmann-La Roche Inc., priority 1989, dated 1991).)
